Values of other authors as cited in patent EP0630652A2, “Contrast media” (NYCOMED SALUTAR, INC., priority 1991, dated 1993).

How the values were obtained:
[1] = Caussen et al. ROFO 148: 683
[2] = Unger et al. Invest. Radiol. 21: 802 (1986)

Compound | side effect ([1]; GI tract use) | contrast improvement in the GI tract ([1]; MRI) | LD₅₀ [2]
O=C([O-])CN(CCN(CC(=O)[O-])CC(=O)O)CCN(CC(=O)[O-])CC(=O)O.[Gd+3] [GdDTPA] | diarrhoea | relatively poor | –
O=C([O-])CN(CCN(CC(=O)[O-])CC(=O)[O-])CCN(CC(=O)[O-])CC(=O)[O-].[Yb+3] [ytterbium DTPA] | – | – | 10 mmol/kg
